Test results taken from patent US20030175254A1, “Method of obtaining purified enterochromaffin cells and methods of using same” (priority 2001, published 2003).

Test system: Intestinal EC Cells
Assay: Serotonin release from cultured rat intestinal (ileal) EC cell fractions, serotonin EIA
Type: cell-based
Conditions: 60 minutes, 100,000 cells cultured overnight
Method: Male Sprague-Dawley rats (n=5 per preparation) were euthanized and the ileum was completely removed and divided into 2-3 pieces. Following end-ligation, these pieces of intestine were everted and filled with an enzyme mix of Pronase E (0.7 mg/mL), and collagenase (0.25 mg/ml). Cells were separated from the muscularis by alternative switching between a calcium containing Respiration medium and a 2 mM EDTA-containing digestive medium (with shaking). A total of 1-2×10^8 cells were obtained from each preparation. Five fractions of cells (F1-F5) were separated by counterflow-elutriation using flow rates of 25 ml/min at 2,500 rpm. Cells (100,000) were cultured overnight in Dulbecco's modified Eagles medium (DMEM)-F12 medium supplemented with 2 mg/ml bovine serum albumin, 5% fetal bovine serum, 5 mg/l gentamicin, 5 mg/l insulin, 5 mg/l transferring, 5 μg/l sodium selenite, and 1 nM hydrocortisone). After removal of the medium, fresh culture medium containing agonists (PACAP, galanin, forskolin, each at 10 nM) was added to the cells for 60 minutes. This medium was removed and the serotonin measured using an serotonin EIA kit and expressed as ng serotonin/100,000 cells/60 min.

Compound	serotonin release, fold versus controls (agonist 10 nM, positive control, p<0.05)	serotonin release versus controls (10^-8 M, negatively regulated serotonin release)
C=C[C@@]1(C)CC(=O)[C@]2(O)[C@@]3(C)[C@@H](O)CCC(C)(C)[C@@H]3[C@H](O)[C@H](OC(C)=O)[C@@]2(C)O1 [Forskolin]	2.1±0.14 fold	
pituitary adenylate cyclase stimulating peptide [PACAP]		0.88±0.06
